Data reported in patent US12152020B2, “Pesticidally active azole-amide compounds” (SYNGENTA PARTICIPATIONS AG, priority 2018, dated 2024).

Tests used:
Type in all cases: in vivo
[1] = system: Diabrotica balteata (Corn Root Worm); assay: Example B1: Diabrotica balteata, maize sprouts sprayed, L2 larvae; settings: 96 h, application rate of 200 ppm, 4 days after infestation, in comparison to untreated samples, read-out: effect in at least one of the two categories (mortality or growth inhibition)
Procedure, shortened: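 Maize sprouts on agar sprayed with aqueous test solutions made from 10′000 ppm DMSO stocks, dried, then infested with 6–10 L2 larvae per well. Mortality and growth inhibition scored against untreated samples 4 days after infestation.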

[2] = system: Euschistus heros (Neotropical Brown Stink Bug); assay: Example B2: Euschistus heros, soybean leaves sprayed, N2 nymphs; settings: 120 h, application rate of 200 ppm, 5 days after infestation, in comparison to untreated samples, read-out: effect in at least one of the two categories (mortality or growth inhibition)
Protocol: Example B2: Euschistus heros (Neotropical Brown Stink Bug)
Soybean leaves on agar in 24-well microtiter plates were sprayed with aqueous test solutions prepared from 10′000 ppm DMSO stock solutions. After drying the leaves were infested with N2 nymphs. The samples were assessed for mortality and growth inhibition in comparison to untreated samples 5 days after infestation.
The following compounds gave an effect of at least 80% in at least one of the two categories (mortality or growth inhibition) at an application rate of 200 ppm: • P1, P2, P3, P7, P11, P12, P16, P17, P18, P22, P25, P29, P32, P33, P37, P38

[3] = system: Chilo suppressalis (Striped Rice Stemborer); assay: Example B4: Chilo suppressalis, artificial diet, L2 larvae; settings: 144 h, application rate of 200 ppm, 6 days after infestation, in comparison to untreated samples, read-out: control in at least one of the categories (mortality, anti-feedant effect, or growth inhibition)
Procedure, shortened: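 Artificial diet was treated with aqueous dilutions made from 10'000 ppm DMSO stocks, dried, then infested with L2 larvae at 6–8 per well. Mortality, antifeedant effect and growth inhibition were assessed against untreated samples 6 days after infestation.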

[4] = system: Plutella xylostella (Diamond Back Moth); assay: Example B5: Plutella xylostella, artificial diet in 24-well plates, eggs; settings: 192 h, application rate of 200 ppm, 8 days after infestation, in comparison to untreated samples, read-out: effect in at least one of the two categories (mortality or growth inhibition)
Procedure, shortened: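 Artificial diet in 24-well plates treated with aqueous test solutions made from 10′000 ppm DMSO stocks, dried, then infested with Plutella eggs. Mortality and growth inhibition scored against untreated samples 8 days after infestation.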

[5] = system: Myzus persicae (Green Peach Aphid); assay: Example B8: Myzus persicae intrinsic activity, sucrose solution under Parafilm, 24-well; settings: 120 h, test rate of 12 ppm, 5 days after infestation
Procedure, shortened: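 Compounds, diluted from 10′000 ppm DMSO stocks, were mixed with sucrose solution in wells sealed with stretched Parafilm. Aphid-infested pea seedlings were placed on the Parafilm, and the covered plate was turned upside down. Mortality was scored 5 days after infestation.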

[6] = system: Spodoptera littoralis (Egyptian Cotton Leaf Worm); assay: Example B9: Spodoptera littoralis, cotton leaf discs sprayed, L1 larvae; settings: foliar, 72 h, application rate of 200 ppm, five L1 larvae, 3 days after infestation, in comparison to untreated samples, read-out: control in at least one of the categories (mortality, anti-feedant effect, or growth inhibition)
Procedure, shortened: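 Cotton leaf discs on agar sprayed with aqueous solutions made from 10′000 ppm DMSO stocks, dried, then infested with five L1 larvae. Mortality, anti-feeding and growth inhibition assessed against untreated samples 3 days after infestation; control counted when any category exceeded untreated.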

[7] = system: Spodoptera littoralis (Egyptian Cotton Leaf Worm); assay: Example B10: Spodoptera littoralis, uptake by lettuce roots from agar, eggs; settings: 144 h, test rate of 12.5 ppm, lettuce root uptake, 6 days after infestation, in comparison to untreated samples, read-out: effect in at least one of the three categories (mortality, anti-feeding, or growth inhibition)
Excerpt: Example B10: Spodoptera littoralis (Egyptian Cotton Leaf Worm)
Test compounds were applied by pipette from 10′000 ppm DMSO stock solutions into 24-well plates and mixed with agar. Lettuce seeds were placed onto the agar and the multi well plate was closed by another plate which contained also agar. After 7 days the compound was absorbed by the roots and the lettuce grew into the lid plate. The lettuce leaves were then cut off into the lid plate. Spodoptera eggs were pipetted through a plastic stencil onto a humid gel blotting paper and the lid plate was closed with it. The samples were assessed for mortality, anti-feedant effect and growth inhibition in comparison to untreated samples 6 days after infestation.
The following compounds gave an effect of at least 80% in at least one of the three categories (mortality, anti-feeding, or growth inhibition) at a test rate of 12.5 ppm: • P3, P15, P32

[8] = system: Myzus persicae (Green Peach Aphid); assay: Example B13: Myzus persicae, sucrose solution under Parafilm, 96-well; settings: 120 h, application rate of 50 ppm, 5 days after infestation
Procedure, shortened: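 Compounds from 10′000 ppm DMSO stocks mixed into sucrose solution, with aphids feeding through a Parafilm membrane in inverted plates. Mortality assessed 5 days after infestation.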

[9] = system: Plutella xylostella (Diamondback Moth); assay: Example B14: Plutella xylostella, artificial diet in 96-well plates, eggs; settings: 216 h, application rate of 500 ppm, 9 days after infestation
Procedure, shortened: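 Artificial diet in microtiter wells treated with aqueous dilutions of DMSO stocks, dried, then infested with ~30 eggs per well; hatching L1 larvae feed on treated diet. Mortality scored 9 days after infestation.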

[10] = system: Myzus persicae (Green Peach Aphid); assay: Example B6: Myzus persicae feeding/contact activity, sunflower leaf discs; settings: foliar, 144 h, application rate of 200 ppm, aphid population of mixed ages, 6 days after infestation
Protocol: Example B6: Myzus persicae (Green Peach Aphid): Feeding/Contact Activity
(§1) Sunflower leaf discs were placed onto agar in a 24-well microtiter plate and sprayed with aqueous test solutions prepared from 10′000 ppm DMSO stock solutions. After drying, the leaf discs were infested with an aphid population of mixed ages. The samples were assessed for mortality 6 days after infestation.

[11] = system: Myzus persicae (Green Peach Aphid); assay: Example B7: Myzus persicae systemic activity, pea seedling roots in test solution; settings: 144 h, test rate of 24 ppm, 6 days after placing seedlings into test solutions
Protocol: Example B7: Myzus persicae (Green Peach Aphid): Systemic Activity
Roots of pea seedlings infested with an aphid population of mixed ages were placed directly into aqueous test solutions prepared from 10′000 DMSO stock solutions. The samples were assessed for mortality 6 days after placing seedlings into test solutions.

[12] = system: Thrips tabaci (Onion thrips); assay: Example B12: Thrips tabaci feeding/contact activity, sunflower leaf discs; settings: foliar, 144 h, application rate of 200 ppm, thrips population of mixed ages, 6 days after infestation
Protocol: Example B12: Thrips tabaci (Onion thrips): Feeding/Contact Activity
as §1, with “on” for “onto”, “in” for “in a”, “plates” for “plate”, “drying” for “drying,”, “a thrips” for “an aphid”

[13] = system: Tetranychus urticae (Two-Spotted Spider Mite); assay: Example B11: Tetranychus urticae feeding/contact activity, bean leaf discs; settings: foliar, 192 h
Protocol: Example B11: Tetranychus urticae (Two-Spotted Spider Mite): Feeding/Contact Activity
Bean leaf discs on agar in 24-well microtiter plates were sprayed with aqueous test solutions prepared from 10′000 ppm DMSO stock solutions. After drying the leaf discs were infested with a mite population of mixed ages. The samples were assessed for mortality on mixed population (mobile stages) 8 days after infestation.

CC(NC(=O)c1cc(Cl)cc(OC(F)(F)F)c1)c1nc(Br)nn1-c1ncccn1 (stereo not shown) [Compound P32, N-[1-(5-bromo-2-pyrimidin-2-yl-1,2,4-triazol-3-yl)ethyl]-3-chloro-5-(trifluoromethoxy)ben zamide]
≥ 80%: percent effect (mortality or growth inhibition) at 200 ppm [1] | percent effect (mortality or growth inhibition) at 200 ppm [2] | percent control (mortality, anti-feedant effect or growth inhibition) at 200 ppm [3] | percent effect (mortality or growth inhibition) at 200 ppm [4] | mortality at 12 ppm [5] | percent control (mortality, anti-feedant effect or growth inhibition) at 200 ppm [6] | percent effect (mortality, anti-feeding or growth inhibition) at 12.5 ppm [7] | mortality at 50 ppm [8] | mortality at 500 ppm [9]

CC(=O)Nc1nc(C(C)N(C)C(=O)c2cc(C(F)(F)F)cc(C(F)(F)F)c2)n(-c2ncccn2)n1 (stereo not shown) [Compound P17, N-[1-(5-acetamido-2-pyrimidin-2-yl-1,2,4-triazol-3-yl)ethyl]-N-methyl-3,5-bis(trifluoromethyl) benzamide]
≥ 80%: percent effect (mortality or growth inhibition) at 200 ppm [1] | percent effect (mortality or growth inhibition) at 200 ppm [2] | percent effect (mortality or growth inhibition) at 200 ppm [4] | mortality at 200 ppm [10] | mortality at 24 ppm [11] | mortality at 12 ppm [5] | percent control (mortality, anti-feedant effect or growth inhibition) at 200 ppm [6] | mortality at 200 ppm [12] | mortality at 50 ppm [8] | mortality at 500 ppm [9]

COCCOc1nc(C(C)NC(=O)c2cc(C(F)(F)F)cc(C(F)(F)F)c2)n(-c2ncccn2)n1 (stereo not shown) [Compound P36, N-[1-[5-(2-methoxyethoxy)-2-pyrimidin-2-yl-1,2,4-triazol-3-yl]ethyl]-3,5-bis(trifluoromethyl) benzamide]
≥ 80%: percent control (mortality, anti-feedant effect or growth inhibition) at 200 ppm [3] | percent effect (mortality or growth inhibition) at 200 ppm [4] | mortality at 12 ppm [5] | percent control (mortality, anti-feedant effect or growth inhibition) at 200 ppm [6] | mortality at 200 ppm [13]

CNc1nc(C(C)N(C)C(=O)c2cc(C(F)(F)F)cc(C(F)(F)F)c2)n(-c2ncccn2)n1 (stereo not shown) [Compound P18, N-methyl-N-[1-[5-(methylamino)-2-pyrimidin-2-yl-1,2,4-triazol-3-yl]ethyl]-3,5-bis(trifluoromethyl) benzamide]
≥ 80%: percent effect (mortality or growth inhibition) at 200 ppm [1] | percent effect (mortality or growth inhibition) at 200 ppm [2] | percent effect (mortality or growth inhibition) at 200 ppm [4] | mortality at 200 ppm [10] | mortality at 12 ppm [5] | percent control (mortality, anti-feedant effect or growth inhibition) at 200 ppm [6] | mortality at 200 ppm [12] | mortality at 50 ppm [8] | mortality at 500 ppm [9]

CC(c1nc(Cl)nn1-c1ncccn1)N(C)C(=O)c1cc(C(F)(F)F)cc(C(F)(F)F)c1 (stereo not shown) [Compound P15, N-[1-(5-chloro-2-pyrimidin-2-yl-1,2,4-triazol-3-yl)ethyl]-N-methyl-3,5-bis(trifluoromethyl)benzamide]
≥ 80%: percent effect (mortality or growth inhibition) at 200 ppm [1] | percent effect (mortality or growth inhibition) at 200 ppm [4] | percent control (mortality, anti-feedant effect or growth inhibition) at 200 ppm [6] | percent effect (mortality, anti-feeding or growth inhibition) at 12.5 ppm [7] | mortality at 50 ppm [8] | mortality at 500 ppm [9]

CC(c1nc(Br)nn1-c1ncccn1)N(C)C(=O)c1cc(C(F)(F)F)cc(C(F)(F)F)c1 (stereo not shown) [Compound P3, N-[1-(5-bromo-2-pyrimidin-2-yl-1,2,4-triazol-3-yl)ethyl]-N-methyl-3,5-bis(trifluoromethyl)benzamide]
≥ 80%: percent effect (mortality or growth inhibition) at 200 ppm [1] | percent effect (mortality or growth inhibition) at 200 ppm [2] | percent control (mortality, anti-feedant effect or growth inhibition) at 200 ppm [3] | percent effect (mortality or growth inhibition) at 200 ppm [4] | mortality at 200 ppm [10] | mortality at 12 ppm [5] | percent control (mortality, anti-feedant effect or growth inhibition) at 200 ppm [6] | percent effect (mortality, anti-feeding or growth inhibition) at 12.5 ppm [7] | mortality at 50 ppm [8] | mortality at 500 ppm [9]
